Laboratory results as given in patent US20100035822A1, “PROLINE-RICH PEPTIDES, PHARMACEUTICAL COMPOSITION, USE OF ONE OR MORE PEPTIDES AND METHOD OF TREATMENT” (priority 2006, published 2010).

Target: T1, argininosuccinate synthase (AsS) (Mus musculus, UniProt P16460)
T1 construct: Cytosolic and membrane fractions of the renal extract (100 mg/ml total protein) were applied to separate columns; from tissue; host or cells: Balb-c mouse kidney, cytosolic and membrane fractions
T1 sequence (P16460 1-412): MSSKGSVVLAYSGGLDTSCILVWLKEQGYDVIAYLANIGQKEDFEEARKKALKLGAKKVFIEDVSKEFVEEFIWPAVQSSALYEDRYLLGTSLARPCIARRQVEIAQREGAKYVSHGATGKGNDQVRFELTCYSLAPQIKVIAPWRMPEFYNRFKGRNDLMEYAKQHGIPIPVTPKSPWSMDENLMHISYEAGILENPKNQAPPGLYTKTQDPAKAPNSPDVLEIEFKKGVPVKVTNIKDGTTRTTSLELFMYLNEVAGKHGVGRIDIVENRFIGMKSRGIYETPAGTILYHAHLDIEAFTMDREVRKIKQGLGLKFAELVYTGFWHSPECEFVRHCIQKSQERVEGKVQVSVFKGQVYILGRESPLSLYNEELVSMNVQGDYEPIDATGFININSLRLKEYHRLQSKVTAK
Test: Affinity chromatography of mouse kidney extract on peptide column; identification of the bound protein
Format: binding
Details: affinity column with SEQ ID NO 7 as ligand; crude mouse kidney extract
Method: Starting material were the cytosolic and plasma membrane crude extracts of mouse kidney cells homogenized in the buffer 10 mM Tris-HCl pH 7.5, 25 mM saccharose, 1 mM EDTA, and 1 mM PMSF (cytosolic fraction), or 1% Triton X-100 (plasma membrane fraction). Supernatants were dialyzed in 0.2 M NaHCO3, 0.5 M NaCl, pH 8.3, and separately applied to the affinity chromatography column Hitrap NHS-activated (GE Healthcare) coupled to 5 mg of peptide SEQ ID NO 7.
Preparing affinity columns. Columns were washed three times with 2 ml 1 mM HCl before homogeneous preparations of SEQ ID NO 7 (5 mg in 1 ml 0.2 M NaHCO3, 0.5 M NaCl, pH 8.3) were applied. After 30 min incubation at room temperature, peptides had been coupled, and the column was inactivated with buffer A (0.5 M ethanolamine, 0.5 M NaCl, pH 8.3), and washed with 0.2 M NaHCO3, 0.5 M NaCl, pH 8.3, and stored at 4° C. in 50 mM Na2HPO4, 0.1%, NaN3, pH 7.0. The columns were called HiTrap-SEQ. ID NO 7. […]
Affinity chromatography and analysis of the retained proteins by SDS-PAGE. […] Protein concentration (mg/ml) was determined by the method of Bradford (Bradford, M. M. A rapid and sensitive method for the quantitation of microgram quantities of protein utilizing the principle of protein-dye binding. Anal. Biochem. 72: 248-254, 1976) with the Protein Assay reagent from BioRad. […]

<ENWPHPQIPP [SEQ ID NO 8]
binding to the approx. 46 kDa protein (AsS) of mouse kidney extract: capable of selectively binding
